Laboratory results published in US8530406B2, “HMG-CoA reductase derived peptide and cosmetic or pharmaceutical composition containing same” (ISP Investments Inc., priority 2008, dated 2013).
No end group written: not given here.

Assays:
Format in all cases: cell-based
[1] = tested on: normal human dermal fibroblasts; experiment: Ultrastructural study of caveolae in human fibroblasts; conditions: 0.5 ppm peptide, 48 hours
Procedure: The goal of this study is to study at the ultrastructural level the caveolae in human dermal fibroblasts.
Normal human dermal fibroblasts in culture are treated with a 1% stock solution at 50 ppm of peptide SEQ ID No. 4 for 48 hours (the medium in the presence of the active ingredient is changed every 24 hours).

[2] = tested on: HMG-CoA reductase; experiment: Expression of HMG-CoA reductase in normal human keratinocytes (immunofluorescence); conditions: 0.5 ppm peptide, 48 hours
Procedure: The goal of this study is to determine the influence of peptide SEQ ID No. 4 on the expression of HMG-CoA reductase in normal human keratinocytes.
Normal human dermal keratinocytes in culture are treated with a 1% stock solution at 50 ppm of peptide SEQ ID No. 4 for 48 hours (the medium in the presence of the active ingredient is changed every 24 hours). The cells are then washed and fixed in cold methanol for 4 minutes at 4° C. The cells are incubated in the presence of a polyclonal rabbit antibody specific for HMG-CoA reductase (Millipore, Upstate), and then a secondary antibody coupled with a fluorescent dye. The cells are then examined by epifluorescence microscope (Nikon Eclipse E600 microscope).

[3] = tested on: normal human keratinocytes; experiment: Differentiation study of human keratinocytes (pankeratin immunofluorescence); conditions: 0.5 ppm peptide, 48 hours, epifluorescence
Procedure: The goal of this study is to determine the influence of peptide SEQ ID No. 5 on epidermal differentiation.
Normal human keratinocytes in culture are treated with a 1% stock solution at 50 ppm of peptide SEQ ID No. 4 for 48 hours (the medium in the presence of the active ingredient is changed every 24 hours). The cells are then washed and fixed with cold methanol for 4 minutes at 4° C.

[4] = tested on: HMG-CoA reductase; experiment: Expression of HMG-CoA reductase in skin biopsies (immunolabelling); conditions: 0.5 ppm peptide applied topically, human skin samples in culture, 24 hours or 48 hours
Procedure: The goal of this study is to determine the influence of peptide SEQ ID No. 5 on the expression of HMG-CoA reductase.
Samples of human skin are placed in culture at the air/liquid interface. A 1% stock solution at 50 ppm of peptide SEQ ID No. 5 is applied topically and then the samples are incubated for 24 hours or 48 hours.
These skin samples are then fixed with formaldehyde and then enclosed in paraffin. Sections of 2 to 3 μm are then made Immunolabelling is carried out after unmasking the specific sites by microwave treatment and then incubation in trypsin Immunolabelling is carried out by using a polyclonal rabbit antibody specific for HMG-CoA reductase (Millipore, Upstate), and then a secondary antibody, coupled with a fluorescent dye. The skin sections are then examined by epifluorescence microscope (Nikon Eclipse E600 microscope).

[5] = tested on: normal human keratinocytes; experiment: Ultrastructural study (transmission electron microscopy) of lamellar bodies in human keratinocytes; conditions: 0.5 ppm peptide
Procedure: The goal of this study is to study in an ultrastructural manner, in transmission electron microscopy, keratinocytes treated by peptide SEQ ID No. 5 at 0.5 ppm.
Normal human keratinocytes in culture are treated with a 1% stock solution at 50 ppm of peptide SEQ ID No. 5 for 48 hours (the medium in the presence of the active ingredient is changed every 24 hours). The cells are washed in PBS, and then are fixed by Karnosky hypertonic fixation (4% paraformaldehyde, 5% glutaraldehyde in a 0.08M phosphate buffer) 1 hour at ambient temperature and then 24 hours at 4° C. The cells are detached from the support by scraping and centrifuged 5 minutes at 1000 rpm. The supernatant is eliminated and a 1M sodium cacodylate buffer is deposited on the residue. The cells are mixed with 2% agar and then postfixed by osmium tetraoxide for 1 hour. The specimens are then dehydrated by successive passages in a series of alcohol (from 50 to 100%). The cells are then coated in a resin. The polymerization is carried out for approximately 12 hours at 60° C. Semi-thin sections of 0.5 μm are made with an ultramicrotome. The sections are deposited on a heat bonded slide and then colored with toluidine blue. The slides are then dehydrated again and mounted in a suitable medium. After having chosen the optimal study zone, the block is recut to the desired size and ultrathin sections are then made, only sections with a silver-grey color and a suitable size are mounted on the electron microscopy grid labeled with both uranyl acetate and lead citrate, and are examined by transmission electron microscope at 60 or 80 KV.

[6] = 48 hours, transmission electron microscopy

| Substance | caveolae versus untreated control cells [1] | HMG-CoA reductase cytoplasmic fluorescence [2] | expression of pankeratins [3] | HMG-CoA reductase fluorescence in the upper layers of the epidermis versus untreated control [4] | Golgi complex development versus control cells [5, 6] | production of lamellar bodies (Odland bodies) [5, 6] | lipid synthesis ([5]; inferred from ultrastructure) |
| --- | --- | --- | --- | --- | --- | --- | --- |
| Ala-Gly-Glu-Leu-Ser (AGELS) [SEQ ID No. 4] | significant increase in caveolae | more intense cytoplasmic fluorescence |  |  |  |  |  |
| Ala-Gly-Glu-Leu-Ser-NH2 (AGELS-NH2) [SEQ ID No. 5] |  |  | increases the expression of pankeratins | stronger fluorescence | substantially more developed | excess production of lamellar bodies | increase in lipid synthesis |
